The results in this text go back to paper PMC6270409, “Synthesis and Anti-Influenza Virus Activities of a Novel Class of Gastrodin Derivatives” (Molecules, 2013).

Data set [1] concerns influenza A/FM/1/47(H1N1). The data set can be described thus: microbe, parasite or virus in culture. In kind it is cell-based, influenza A virus.
Data set [2] deals with MDCK cells. The data set can be described thus: Cytotoxicity assay in MDCK cells monitored by CPE. The following applies: 48 h, Table 1.
Data set [3] concerns influenza A/Hanfang/359/95(H3N2). The data set can be described thus: microbe, parasite or virus in culture. In kind it is cell-based, influenza A virus.
For data set [4], the system named is influenza B (B/Jifang/13/97). Kind of data set: Anti-influenza CPE assay in MDCK cells, oseltamivir-null B/Jifang/13/97. As to conditions: Influenza B virus, read-out: IC50 B/Jifang/13/97. In kind it is cell-based.

Read-outs that look alike come from different tables or passages of the source. A value given as a limit tells only on which side of the number the result lay.

With `COC(=O)c1ccc(F)c(O)c1` [Compound 1, Methyl 4-fluoro-3-hydroxybenzoate], the “IC50 A/FM/1/47” value in data set [1] was “no activity”. The IC50 in data set [1] (Influenza A virus, H1N1, MDCK) was > 392 µM; in data set [3] (Influenza A virus, H3N2, MDCK), > 1180 µM. In addition, the TC50 in data set [2] is >1175.50 µM. In addition, the “IC50 A/Hanfang/359/95” value in data set [3] was “no activity”.

For `COC(=O)c1ccc(F)c(O[C@@H]2O[C@H](COC(C)=O)[C@H](OC(C)=O)[C@H](OC(C)=O)[C@H]2OC(C)=O)c1` [Compound 1b, Methyl 4-fluoro-3-((2S,3R,4S,5S,6R)-3,4,5-triacetoxy-6-(acetoxymethyl)-tetrahydro-2H-pyran-2-yloxy)benzoate], the IC50 in data set [1] (Influenza A virus, H1N1, MDCK) was > 133 µM; in data set [3] (Influenza A virus, H3N2, MDCK), 92.4 µM.

As to `COC(=O)c1c(OC)cc(O[C@@H]2O[C@H](COC(C)=O)[C@@H](OC(C)=O)[C@H](OC(C)=O)[C@H]2OC(C)=O)cc1OC` [Compound 2a, Methyl 2,6-dimethoxy-4-((2S,3R,4S,5R,6R)-3,4,5-triacetoxy-6-(acetoxymethyl)-tetrahydro-2H-pyran-2-yloxy)benzoate], the melting point was in the range of 121 to 123 °C. Moreover, in data set [1] (Influenza A virus, H1N1, MDCK), the IC50 stood at 11.6 µM. Further, in data set [3] (Influenza A virus, H3N2, MDCK), the IC50 was > 13.7 µM. The IC50 in data set [4] was determined as 6.25 µM.

For `COC(=O)c1ccc(N)c(O[C@@H]2O[C@H](COC(C)=O)[C@@H](OC(C)=O)[C@H](OC(C)=O)[C@H]2OC(C)=O)c1` [Compound 4a, Methyl 4-amino-3-((2S,3R,4S,5R,6R)-3,4,5-triacetoxy-6-(acetoxymethyl)-tetrahydro-2H-pyran-2-yloxy)benzoate], the melting point was 126 to 128 °C. The same molecule showed an IC50 in data set [1] (Influenza A virus, H1N1, MDCK) of 119 µM. Moreover, the IC50 in data set [3] (Influenza A virus, H3N2, MDCK) is > 134 µM.

Molecule `COC(=O)c1cccc(O[C@@H]2O[C@H](COC(C)=O)[C@H](OC(C)=O)[C@H](OC(C)=O)[C@H]2OC(C)=O)c1` [Compound 6b, Methyl 3-((2S,3R,4S,5S,6R)-3,4,5-triacetoxy-6-(acetoxymethyl)-tetrahydro-2H-pyran-2-yloxy)benzoate] registered a melting point of 154 to 156 °C. Also, the IC50 in data set [1] (Influenza A virus, H1N1, MDCK) is > 138 µM. For the same molecule, in data set [3] (Influenza A virus, H3N2, MDCK), the IC50 was > 138 µM.

`COC(=O)c1ccc(O[C@@H]2O[C@H](COC(C)=O)[C@@H](OC(C)=O)[C@H](OC(C)=O)[C@H]2OC(C)=O)c(F)c1` [Compound 7a, Methyl 3-fluoro-4-((2S,3R,4S,5R,6R)-3,4,5-triacetoxy-6-(acetoxymethyl)-tetrahydro-2H-pyran-2-yloxy)benzoate] had a melting point of 121 to 123 °C. For the same molecule, the IC50 in data set [1] (Influenza A virus, H1N1, MDCK) was > 133 µM. This molecule also returned an IC50 in data set [3] (Influenza A virus, H3N2, MDCK) of 103 µM.

In turn, `COC(=O)c1ccc(O[C@@H]2O[C@H](COC(C)=O)[C@H](OC(C)=O)[C@H](OC(C)=O)[C@H]2OC(C)=O)c(F)c1` [Compound 7b, Methyl 3-fluoro-4-((2S,3R,4S,5S,6R)-3,4,5-triacetoxy-6-(acetoxymethyl)-tetrahydro-2H-pyran-2-yloxy)benzoate] returned a melting point of 121 to 123 °C. For the same molecule, in data set [1] (Influenza A virus, H1N1, MDCK), the IC50 stood at 133 µM. In addition, the IC50 in data set [3] (Influenza A virus, H3N2, MDCK) is > 133 µM.

`COC(=O)c1c(F)cccc1O[C@@H]1O[C@H](COC(C)=O)[C@@H](OC(C)=O)[C@H](OC(C)=O)[C@H]1OC(C)=O` [Compound 9a, Methyl 2-fluoro-6-((2S,3R,4S,5R,6R)-3,4,5-triacetoxy-6-(acetoxymethyl)-tetrahydro-2H-pyran-2-yloxy)benzoate] came in with a melting point of 130 to 132 °C. In data set [1] (Influenza A virus, H1N1, MDCK), this molecule showed an IC50 of 34.5 µM. For the same molecule, in data set [3] (Influenza A virus, H3N2, MDCK), the IC50 is > 44.4 µM. The IC50 in data set [4] was > 44.4 µM.

As to `COC(=O)c1c(F)cccc1O[C@@H]1O[C@H](COC(C)=O)[C@H](OC(C)=O)[C@H](OC(C)=O)[C@H]1OC(C)=O` [Compound 9b, Methyl 2-fluoro-6-((2S,3R,4S,5S,6R)-3,4,5-triacetoxy-6-(acetoxymethyl)-tetrahydro-2H-pyran-2-yloxy)benzoate], the melting point is 130 to 132 °C. In data set [1] (Influenza A virus, H1N1, MDCK), this molecule showed an IC50 of 66.6 µM. Also, the IC50 in data set [3] (Influenza A virus, H3N2, MDCK) is > 133 µM. Moreover, the IC50 in data set [4] was > 133 µM.

`CC(=O)OC[C@H]1O[C@@H](Oc2cccc(F)c2C)[C@H](OC(C)=O)[C@@H](OC(C)=O)[C@@H]1OC(C)=O` [Compound 10a, (2R,3R,4S,5R,6S)-2-(Acetoxymethyl)-6-(3-fluoro-2-methylphenoxy)-tetrahydro-2H-pyran-3,4,5-triyl triacetate] returned a melting point of 127 to 129 °C. Besides, in data set [1] (Influenza A virus, H1N1, MDCK), the IC50 was > 146 µM. The IC50 in data set [3] (Influenza A virus, H3N2, MDCK) is > 146 µM.

`CC(=O)OC[C@H]1O[C@@H](Oc2cccc(F)c2C)[C@H](OC(C)=O)[C@@H](OC(C)=O)[C@H]1OC(C)=O` [Compound 10b, (2R,3S,4S,5R,6S)-2-(Acetoxymethyl)-6-(3-fluoro-2-methylphenoxy)-tetrahydro-2H-pyran-3,4,5-triyl triacetate] yielded a melting point of 127 to 129 °C. The IC50 in data set [1] (Influenza A virus, H1N1, MDCK) was > 52.2 µM. The IC50 in data set [3] (Influenza A virus, H3N2, MDCK) was found to be 48.7 µM. Further, the IC50 in data set [4] worked out at 39.4 µM.

`CC(=O)OC[C@H]1O[C@@H](Oc2ccncc2)[C@H](OC(C)=O)[C@@H](OC(C)=O)[C@@H]1OC(C)=O` [Compound 11a, (2R,3R,4S,5R,6S)-2-(Acetoxymethyl)-6-(pyridin-4-yloxy)-tetrahydro-2H-pyran-3,4,5-triyl triacetate]: the melting point is 132 to 134 °C. For the same molecule, in data set [1] (Influenza A virus, H1N1, MDCK), the IC50 stood at 52.2 µM. Moreover, in data set [3] (Influenza A virus, H3N2, MDCK), the IC50 amounted to 40.5 µM. For the same molecule, the IC50 in data set [4] was > 52.2 µM.

`CC(=O)OC[C@H]1O[C@@H](Oc2ncccc2F)[C@H](OC(C)=O)[C@@H](OC(C)=O)[C@@H]1OC(C)=O` [Compound 12a, (2R,3R,4S,5R,6S)-2-(Acetoxymethyl)-6-(3-fluoropyridin-2-yloxy)-tetrahydro-2H-pyran-3,4,5-triyl triacetate] registered a melting point of 140 to 142 °C. This molecule had an IC50 in data set [1] (Influenza A virus, H1N1, MDCK) of 25.2 µM. In data set [3] (Influenza A virus, H3N2, MDCK), the IC50 was > 50.1 µM. Further, the IC50 in data set [4] was > 50.1 µM.

On to `CC(=O)OCc1ccc(F)c(O[C@@H]2O[C@H](COC(C)=O)[C@@H](OC(C)=O)[C@H](OC(C)=O)[C@H]2OC(C)=O)c1` [Compound 13a, (2R,3R,4S,5R,6S)-2-(Acetoxymethyl)-6-(5-(acetoxymethyl)-2-fluorophenoxy)-tetrahydro-2H-pyran-3,4,5-triyl triacetate], for which the IC50 in data set [1] (Influenza A virus, H1N1, MDCK) was > 130 µM; in data set [3] (Influenza A virus, H3N2, MDCK) it was > 130 µM.

Consider `OCc1ccc(F)c(O[C@@H]2O[C@H](CO)[C@@H](O)[C@H](O)[C@H]2O)c1` [Compound 14a, (2S,3R,4S,5S,6R)-2-(2-Fluoro-5-(hydroxymethyl)phenoxy)-6-(hydroxymethyl)-tetrahydro-2H-pyran-3,4,5-triol], for which the IC50 in data set [1] (Influenza A virus, H1N1, MDCK) is > 657 µM; in data set [3] (Influenza A virus, H3N2, MDCK), > 657 µM. Besides, the TC50 in data set [2] was >657.31 µM.

As for `OCc1ccc(O[C@@H]2O[C@H](CO)[C@@H](O)[C@H](O)[C@H]2O)cc1` [Gastrodin], the IC50 in data set [1] (Influenza A virus, H1N1, MDCK) is > 232 µM; in data set [3] (Influenza A virus, H3N2, MDCK) it was 161 µM. Besides, the TC50 in data set [2] is >698.62 µM.

As to “Ethyl 3,5-dichloro-4-((2S,3R,4S,5R,6R)-3,4,5-triacetoxy-6-(acetoxymethyl)-tetrahydro-2H-pyran-2-yloxy)benzoate [Compound 3a]”, the IC50 in data set [1] and in data set [3] was > 363 µM in each case. In addition, the TC50 in data set [2] was >362.77 µM.

As to “Ethyl 4-fluoro-2-((2S,3R,4S,5R,6R)-3,4,5-triacetoxy-6-(acetoxymethyl)-tetrahydro-2H-pyran-2-yloxy)-benzoate [Compound 8a]”, the IC50 in data set [1] worked out at 83.7 µM; in data set [3] it was 44.4 µM. The TC50 in data set [2] is 277.10 µM.
